Activity calls are given as the source filed them. No rule for the calls is given here.

The experiment is described as follows: modulators of 2-deoxyglucose-induced H9c2 death, dose response, myocardial damage modulator project, cell-based, ATPlite luminescence, rat, set 2 (AID 602210). As to conditions: H9c2 rat cardiomyoblasts, 2-deoxyglucose-induced death, 2 h. For orientation: In ATP-based viability assays light output follows the ATP content of the culture.
In general, IC50 refers to the concentration needed to halve the response being measured. As to `Cc1cc(C)cc(OCC(=O)Nc2cccc(-c3nc4ncccc4o3)c2)c1`, the IC50 is 14.3 µM (inactive). As for `COC(=O)c1cc2c(C)c(C)c3ccccn3c-2c1C(=O)OC`, the IC50 is 7.29 µM.

For the compound `CCn1c(SCC(=O)Nc2ccccc2N2CCCCC2)nc2c1c(=O)n(C)c(=O)n2C`, the IC50 was 16.4 µM (inactive). `Cn1c2ccccc2c2cc(/C=N/NC(=O)c3cc(O)ccc3O)ccc21`: the IC50 is > 79 µM (inactive).

Consider `COc1cc(-c2cc(C(=O)NCc3ccco3)c3ccccc3n2)cc(OC)c1OC`, for which the IC50 is 16.4 µM (inactive). For `CCCCCCn1c(C)nc2c(c1=O)c1nc3ccccc3nc1n2/N=C/c1ccco1`, the IC50 was 11.2 µM (inactive). To `COc1ccc(CCCNC(=O)C2(C)Cc3c(-c4ccc(NC(C)=O)cc4)ccnc3O2)cc1` (stereo unspecified) belongs 12.5 µM (inactive); to `COc1cc(/C=C/c2nc(-c3ccccc3O)n[nH]2)cc(OC)c1OC`, > 79 µM (inactive); to `COc1cc(NC(=O)c2cc3c(C)nc4ccccc4c3o2)cc(OC)c1OC`, 11.2 µM (inactive). The result for `CC(=O)NCCNc1nc2c(-c3ccccc3)nnn2c2ccccc12` reads 13.2 µM (inactive); that for `COc1ccc(COc2cc(-c3cccc(OC)c3)nc3ccc(NC(=O)c4cccnc4)cc23)cc1`, 3.51 µM. Turning to `O=C(COc1cccc(NC(=O)c2cccc([N+](=O)[O-])c2)c1)c1ccc(F)cc1`, the IC50 is 11.2 µM (inactive).

As to `CC(C)(C)NC(=O)c1cc(NC(=O)c2cccs2)cc(NC(=O)c2cccs2)c1`, the IC50 is 15.7 µM (inactive). To `Cn1c(=O)[nH]c(=O)c2c1nc(N(CCO)Cc1ccccc1)n2CCCc1ccccc1` belongs > 79 µM (inactive); to `O=C(Cn1nc(C(=O)O)c2ccccc2c1=O)c1c[nH]c2ccccc12`, 40.1 µM (inactive). The result for `COc1ccc(/C=C/C(=O)c2ccccc2O)cc1CN1CCOCC1` reads 25.7 µM (inactive). To `CCN(C[C@H]1N[C@@](Cc2ccccc2)(C(=O)OC)[C@H]2C(=O)N(C)C(=O)[C@@H]12)S(=O)(=O)c1ccc(OC)cc1` belongs > 79 µM (inactive); to `CCOC(=O)C1=C(C)NC(C)=C(C(=O)OCC)C1C(=O)OCC(=O)NC(C)C`, 25.1 µM (inactive). `CC(=O)Nc1ccc(S(=O)(=O)N(Cc2cccnc2)Cc2cc3ccccc3[nH]c2=O)cc1`: the IC50 is 5.82 µM. In the case of `N#C/C(=C\c1ccc(-c2cccc([N+](=O)[O-])c2)o1)C(=O)NCCN1CCOCC1`, the IC50 is > 79 µM (inactive). For `CCn1nc(C(=O)Nc2nc(-c3ccccn3)cs2)c2ccccc2c1=O`, the IC50 was 6.65 µM. The result for `Cc1ccc(C)c(NC(=O)C(Sc2nc3ccccc3c(=O)n2CC(C)C)c2ccccc2)c1` (stereo unspecified) reads 0.34 µM; that for `COc1ccc(-n2c(/C=C/c3ccc(O)cc3)nc3ccccc3c2=O)cc1`, 18.5 µM (inactive); that for `CNC(=O)c1ccc(-c2sc3nc(N4CCOCC4)c4c(c3c2N)CC(C)(C)OC4)o1`, 21.3 µM (inactive). To `COc1ccc(C(=O)Nc2cccc(NC(=O)c3ccc(OC)c(OC)c3)n2)cc1OC` belongs 5.47 µM. As for `CCN(CC)C(=O)c1ccc(-c2nnc(Nc3ccc(O)cc3)c3ccccc23)cc1`, the IC50 was 44.2 µM (inactive).

As to `O=C(Nc1nc(-c2cc(F)ccc2F)cs1)C1=NN(c2ccccc2)C(=O)CC1`, the IC50 was 14.2 µM (inactive). As for `COc1ccc(-n2c(/C=C/c3ccc(O)c(OC)c3)nc3ccccc3c2=O)cc1`, the 50% inhibitory concentration (IC50) is 8.14 µM. The result for `CCOC(=O)c1cc2c(=O)n3ccccc3nc2n(Cc2ccco2)c1=NC(=O)c1cccnc1` reads 23 µM (inactive); that for `Cc1nc(NC(=O)c2cc3c(C)nn(-c4ccccc4)c3s2)sc1C(=O)Nc1ccccc1`, > 79 µM (inactive). To `Cc1ccc(-n2cc(-c3ccccc3)c3c(N4CCOCC4)ncnc32)cc1` belongs 8.37 µM; to `Clc1ccccc1-c1nc(N/N=C/c2cccnc2)c2ccccc2n1`, 18.6 µM (inactive). `CCOc1ncccc1C(=O)Nc1cccc(-c2nc3cccnc3s2)c1`: the concentration for half-maximal inhibition (IC50) is 7 µM.

As to `C=CCn1cnc2c(c1=O)c1nc3ccccc3nc1n2/N=C/c1cc(OC)c(OC)c(OC)c1`, the IC50 is 2.64 µM. `COc1ccc(-n2nc(C(=O)NCC(=O)Nc3cc(OC)c(OC)c(OC)c3)c3ccccc3c2=O)cc1Cl`: the IC50 is 7.79 µM.

For `CC(C)(C)C(=O)Nc1ccc(C(=O)N/N=C/c2ccccc2OC(=O)c2ccccc2)cc1`, the IC50 was > 79 µM (inactive). For `COc1cc(-c2cc(NC=O)c3ncc(-c4ccc(C(C)=O)cc4)n3c2)cc(OC)c1OC`, the IC50 is 6.7 µM. The result for `CCOC(=O)C1CCN(c2cc3c(cc2NC(=O)c2ccccc2)n(C)c(=O)n3C)CC1` reads 10 µM. Consider `COc1cc(/C=N\NC(=O)c2cccnc2)ccc1OC(=O)c1ccccc1Cl`, for which the IC50 is > 79 µM (inactive). As to `CC12C=CC(=O)CC1CCC1C2CCC2(C)C(O)C(O)CC12` (stereo unspecified), the IC50 is 21 µM (inactive). `COc1nc(N/N=C/c2cc3c(cc2Br)OCO3)nc(N2CCOCC2)n1`: the IC50 is 17.4 µM (inactive).

With `COc1ccc(Cl)cc1-c1nc(-c2ccc(NC(=O)c3cccs3)cc2)no1`, the IC50 was > 79 µM (inactive). The result for `CCOc1ccc2nc(NC(=O)CN3CCC(n4nnc5cc(F)ccc54)CC3)sc2c1` reads 15.9 µM (inactive); that for `CCOC(=O)c1cc(-c2nnc(-c3cc(OC)c(OC)c(OC)c3)o2)c(C)nc1C`, 3.44 µM; that for `COc1ccc(-c2cc(NC=O)c3ncc(-c4ccccc4)n3c2)cc1OC`, > 79 µM (inactive). Consider `CC(=O)Nc1cccc(-c2cc(NC=O)c3ncc(-c4ccc(C(C)=O)cc4)n3c2)c1`, for which the IC50 was 13.6 µM (inactive). As to `CCOc1ccc(S(=O)(=O)N(C)CCO)cc1-c1nc2c(C(C)(C)C)nn(C)c2c(=O)[nH]1`, the IC50 was 33.2 µM (inactive). To `COc1ccc(-c2cc(C(=O)N(C)Cc3ccc(OC)c(OC)c3OC)c3ccccc3n2)cc1OC` belongs 10.2 µM (inactive); to `CCC(CC)C(=O)Nc1cc(C)c2c(=O)oc3ccccc3c2n1`, 36.4 µM (inactive). Consider `COC(=O)c1ccc2c(=O)[nH]c(COC(=O)c3[nH]c(C)c(C(C)=O)c3C)nc2c1`, for which the IC50 is 9.12 µM.

Take `O=c1cc(-c2cccnc2)oc2c1ccc1ccccc12`: the IC50 was 16.4 µM (inactive). To `c1cncc(-c2nc(NCC3COc4ccccc4O3)c3ccccc3n2)c1` (stereo unspecified) belongs > 79 µM (inactive); to `O=C(Nc1ccc2nc(N3CCOCC3)sc2c1)c1cc2ccccc2o1`, > 79 µM (inactive); to `NC(=O)c1nsc(C(=O)N(CCc2ccccc2)C(C(=O)NC2CCCC2)c2ccco2)c1N` (stereo unspecified), 25.8 µM (inactive).

Turning to `CCOC(=O)C1=C(C)N=c2s/c(=C\c3ccncc3)c(=O)n2C1c1ccc2c(c1)OCO2` (stereo unspecified), the IC50 is 30.3 µM (inactive). To `O=C(NCCN1CCN(c2ccccc2F)CC1)c1cccn2c(=O)c3ccccc3nc12` belongs 11.7 µM (inactive); to `COc1ccc(-c2nn3c(-c4ccco4)nnc3s2)cc1OC`, 28.2 µM (inactive). To `Cc1nc(SCC(=O)N2CCN(c3ccccc3)CC2)c2oc3ccccc3c2n1` belongs 25.8 µM (inactive); to `Cc1ccc(-c2csc(N3CCC[C@@H]3C(=O)NCCn3c(-c4ccncc4)nc4ccccc43)n2)cc1`, 8.85 µM. To `COc1ccc(-c2cc3nc(-c4ccccc4)cc(N4CCN(C(=O)c5ccoc5)CC4)n3n2)cc1` belongs 7.21 µM; to `CC(=O)c1ccc(N2CCN(C(=O)c3cc(-c4cccnc4)nc4ccc(Br)cc34)CC2)cc1`, 15.7 µM (inactive); to `CC1(C)Oc2ccc3ccc(=O)oc3c2/C(=C/Nc2ccccn2)C1=O`, 12.4 µM (inactive). Regarding `COc1ccc(OC)c(/C=N/Nc2nncn2/N=C/c2cc(OC)ccc2OC)c1`, the IC50 was > 79 µM (inactive). As for `CC(=O)c1ccc(-c2ccc(C(=O)Nc3nc(-c4ccccn4)cs3)o2)cc1`, the IC50 is 5.91 µM. Consider `COc1ccc(Cl)cc1NC(=O)CCS(=O)(=O)c1cc2c(cc1C)NC(=O)CO2`, for which the IC50 was 26 µM (inactive).

On to `COc1cccc(C(=O)Nc2cccc(-c3nnc(-c4ccco4)o3)c2)c1`, for which the IC50 was 12.6 µM (inactive). Regarding `C[C@H](CO)N1C[C@H](C)[C@@H](CN(C)S(=O)(=O)c2ccc(F)cc2)Oc2ccc(NC(=O)Nc3ccc4c(c3)OCO4)cc2C1=O`, the IC50 is 48.8 µM (inactive). Consider `COc1cc(C(=O)Nc2ccc(NC(=O)c3cccc(Cl)c3)nc2)cc(OC)c1OC`, for which the IC50 was > 79 µM (inactive). Consider `COc1ccc(-c2cc(C(=O)N(C)Cc3ccccc3F)c3ccccc3n2)cc1OC`, for which the IC50 is 13.5 µM (inactive). The result for `COc1ccc(-c2cc(NC(C)=O)c3ncc(-c4ccc(OC)c(OC)c4)n3c2)cc1OC` reads 14.8 µM (inactive); that for `O=C(CN1CCCCC1)Nc1nc(-c2ccc(F)c(F)c2)cs1`, > 79 µM (inactive); that for `COc1ccc(Nc2nnc(-c3ccc(O)cc3)c3ccccc23)cc1C(N)=O`, > 79 µM (inactive). As to `COc1cccc(-c2cnc3c(NC=O)cc(-c4cccc(NC(C)=O)c4)cn23)c1`, the IC50 was 6.84 µM. For `CCn1nc(C(=O)NNC(=O)c2cc(Cl)ccc2OC)c2ccccc2c1=O`, the IC50 is > 79 µM (inactive). To `N#Cc1ccccc1S(=O)(=O)N1CCN(c2nc(-c3cccnc3)nc3ccccc23)CC1` belongs 8.75 µM. To `CC(=O)Nc1cccc(NC(=O)c2cc(-c3cccnc3)nc3ccc(Br)cc23)c1` belongs > 79 µM (inactive); to `Cc1ccc(-c2nn3c(-c4ccco4)nnc3c3ccccc23)cc1S(=O)(=O)NCC1CCCO1` (stereo unspecified), 27.1 µM (inactive); to `Fc1ccc(-n2cc(-c3ccccc3)c3c(N4CCOCC4)ncnc32)cc1`, 6.7 µM. The result for `COc1cc(-c2cc(NC=O)c3ncc(-c4ccccc4)n3c2)cc(OC)c1OC` reads > 79 µM (inactive); that for `COc1cccc(-c2cnc3c(NC=O)cc(-c4cc(OC)c(OC)c(OC)c4)cn23)c1`, 14.2 µM (inactive). Consider `COC(=O)c1cccc(Nc2nc(-c3cccnc3)nc3ccccc23)c1`, for which the IC50 was 7.25 µM.

For the origin of these results see PubChem BioAssay AID602210 (Sanford-Burnham Center for Chemical Genomics, 2012).
